Tests used:
[1] = T1-relaxivity of commercially available 1H-NMR contrast media; assay type: physicochemical; details: 39° C., 0.47 T
[2] = Determination of the T1-relaxivity with a Minispec pc 20 in human plasma; assay type: physicochemical; details: 0.47 T (20 MHz), 37° C., human plasma, normalized to one metal atom
Procedure: Determination of the T^1 -Relaxivity of Selected Compounds
The relaxivity of the following compounds was determined
with a Minispec pc 20 (20 MHz, 0.47 T) at 37° C. in human plasma
and compared to that of Gd-DTPA-polylysine and Magnevist^(R) as
comparison substances. Since the substances according to the
invention contain more than one metal atom, the relaxivity was
normalized to one metal atom for purposes of comparison.

[3] = In-vivo comparison with an intravascular and an extracellular contrast medium in blocked kidneys (diffusibility); set-up: species or system rats; details: i.v., blocked renal vessels, compound 2 set at 100%
Procedure: As test animals, three 250 g male (Schering-SPF) rats were used. The renal vessels in the animals were blocked to prevent renal elimination and, assuming that fecal elimination is negligible, to obtain a measure of the diffusibility of the formulation according to the invention from the blood into the surrounding tissue. 0.5 ml (in each case 10 mmol/l) of the following contrast medium solution was intravenously administered per animal: a mixture consisting of 1 part each of the compound of Example 1g, named compound 1 below, of intravascular contrast medium Eu-DTPA-albumin, named compound 2 below and of extracellular contrast medium Dy-DTPA, named compound 3 below. Via a catheter in the common carotid artery, blood samples were taken at the following times: 15, 30, 45, 60, 90 seconds; 3, 5, 10, 15 minutes p.i. In the blood samples that were obtained, in each case the concentrations of gadolinium (Gd), europium (Eu) and dysprosium (Dy) were measured in parallel using atom emission spectrometry (ICP-AES). The proportion of the intravascular contrast medium compound 2 (Eu) that remains in the blood space was set at 100%. It was possible to compare the proportion of the formulation according to the invention of compound 1 (Gd) and compound 3 (Dy, extracellular comparison substance) that remained in the blood space by the different labeling in the same animal, and the proportion was set as a percentage of the concentration of compound 2.

[4] = Blood elimination kinetics after one-time intravenous administration; assay type: in vivo, rats; details: two-compartment model, n=3
Procedure: (§1) For this purpose, after one-time intravenous administration (via a caudal vein) of the substances (dose: ≈100 μmol of metal per kg of body weight), the substance concentration in the blood (based on the Gd or Dy content) was determined over a period of up to 120 minutes p.i. using ICP-AES. The pharmacokinetic parameters: distribution volume (Vss), total clearance (CLtot) and elimination half-life (tb) were calculated with a special computer program (TOPFIT 2.0; Thomae, Schering, Godecke), whereby a two-compartment distribution model was used as a basis.
The Gd and Dy contents in the blood were determined using ICP-AES.
as §1, with “metal” for “Gd or Dy”

[5] = Table 3, i.v. ≈100 μmol metal/kg
[6] = Table 4, i.v. ≈100 μmol metal/kg

## C[NH2+]C[C@H](O)[C@@H](O)[C@H](O)[C@H](O)CO.O=C([O-])CN1CCN(CC(=O)[O-])CCN(CC(=O)[O-])CCN(CC(=O)[O-])CC1.[Gd+3] [Dotarem, meglumine salt of Gd-DOTA (Gadolinium(III)complex of 1,4,7,10-tetracarboxymethyl-1,4,7,10-tetraazacyclododecane)]
[1]
  T^1-relaxivity: 3.5 to 4.9 mM⁻¹ s⁻¹

## 1,4,7-Tris{N-3,9-bis(carboxylatomethyl)-6-[N-3-aza-2,5-dioxo-pentane-1,5-diyl]-3,6,9-triazaundecane-1-carboxylato-11-acid, Gd complex, sodium salt}-10-[N-acetyl-(2-amino-N-ethyl-N-perfluorooctylsulfonyl)]-1,4,7,10-tetraazacyclododecane [18d)]
[2]
  R^1 (T^1-relaxivity): 23.0 L/mmol/s

## 1,4,7-Tris{1,4,7-tris-(N-carboxylatomethyl)-10-[N-(4,7-diaza-3,6,9-trioxo)-nonane-2,9-diyl]-1,4,7,10-tetraazacyclododecane, Gd complex-10-(N-22F,22F,22F,21F,21F,20F,20F,19F,19F,18F,18F,17F,17F,16F,16F,15F,15F-heptadecafluoro-12-oxa-docosanoyl)-1,4,7,10-tetraazacyclododecane [14e)]
[2]
  R^1 (T^1-relaxivity): 19.3 L/mmol/s

## CNC(=O)CN(CCN(CCN(CC(=O)[O-])CC(=O)NC)CC(=O)[O-])CC(=O)[O-].[Gd+3] [Omniscan]
[1]
  T^1-relaxivity: 3.5 to 4.9 mM⁻¹ s⁻¹

## CC(O)CN1CCN(CC(=O)[O-])CCN(CC(=O)[O-])CCN(CC(=O)[O-])CC1.[Gd+3] (stereo not shown) [Pro Hance]
[1]
  T^1-relaxivity: 3.5 to 4.9 mM⁻¹ s⁻¹

## 1,4,7-Tris{N-hexanoyl-2,6-bis<amino-N-acetyl-2-[aminopropanoyl-(2-yl)]-[1,4,7-tris(N-carboxylatomethyl)-1,4,7,10-tetraazacyclododecan-10-yl, Gd complex]>}-10-[N-acetyl-(2-amino-N-ethyl-N-perfluorooctylsulfonyl)]-1,4,7,10-tetraazacyclododecane [Example 27]
[2]
  R^1 (T^1-relaxivity): 16.1 L/mmol/s

## 1,4,7-Tris{N-[3,9-bis(N-carboxylatomethyl)]-6-[N-(3-aza-2,5-dioxo-pentane)-1,5-diyl]-3,6,9-triazaundecane-1-carboxylato-11-acid, Gd complex, monosodium salt}-10-N-{undecanoyl-<11-amino-N-[acetyl-(2-amino-N-ethyl-N-perfluorooctyl-sulfonyl)]>}-1,4,7,10-tetraazacyclododecane [25f)]
[2]
  R^1 (T^1-relaxivity): 15.1 L/mmol/s

## Eu-DTPA-albumin [compound 2]
[3]; 30 seconds p.i.
  Percentage of the dose that remains in the blood space: 100%
[3]; 3 minutes p.i.
  Percentage of the dose that remains in the blood space: 100%
[3]; 10 minutes p.i.
  Percentage of the dose that remains in the blood space: 100%

## C[NH2+]C[C@H](O)[C@@H](O)[C@H](O)[C@H](O)CO.C[NH2+]C[C@H](O)[C@@H](O)[C@H](O)[C@H](O)CO.O=C([O-])CN(CCN(CC(=O)[O-])CC(=O)[O-])CCN(CC(=O)[O-])CC(=O)[O-].[Gd+3] [Magnevist, di--N-methylglucamine salt of the Gd-DTPA complex, reference compound]
[1]
  T^1-relaxivity: 3.5 to 4.9 mM⁻¹ s⁻¹
[2]
  R^1 (T^1-relaxivity): 4.8 L/mmol/s

## 1,4,7-Tris{N-hexanoyl-2,6-bis<amino-N-acetyl-2-[3,9-bis(N-carboxylato-methyl)-6-yl-3,6,9-triazaundecane-1-carboxylato-11-acid, Gd complex, monosodium salt]>}-10-[N-acetyl-(2-amino-N-ethyl-N-perfluorooctylsulfonyl)]-1,4,7,10- tetraazacyclododecane [26d)]
[2]
  R^1 (T^1-relaxivity): 13.0 L/mmol/s

## Dy-DTPA [reference compound]
[3]; 30 seconds p.i.
  Percentage of the dose that remains in the blood space: 48%
[3]; 3 minutes p.i.
  Percentage of the dose that remains in the blood space: 25%
[3]; 10 minutes p.i.
  Percentage of the dose that remains in the blood space: 21%
[4]; [5]
  Distribution volume Vss (MEAN): 0.17 Ukg
  Elimination half-life tβ (MEAN): 20.7 min
  Total clearance CLtot (MEAN): 6.75 mU (min*kg)
  tα (MEAN): 2.07 min
[4]; [6]
  Distribution volume Vss (MEAN): 0.17 Ukg
  Elimination half-life tβ (MEAN): 18.5 min
  Total clearance CLtot (MEAN): 6.90 mL·kg·min
  tα (MEAN): 1.48 min

## 1,4,7-Tris{N-3,3,6-tris(carboxylatomethyl)-6-[N-3-aza-2,5-dioxo-pentane-1,5-diyl]-3,6,9-triazaundecane-1,11-dioic acid, Gd complex, monosodium salt}-10-2H,2H,4H,4H,5H,5H-3-oxa-perfluoro-tridecanoyl)-1,4,7,10-tetraazacyclododecane [8b)]
[2]
  R^1 (T^1-relaxivity): 20.6 L/mmol/s
